Test results taken from patent publication US6436344B1, “Method of inactivating pathogens” (American National Red Cross, priority 1999, dated 2002).

Experiments:
[1] = Relative amount of IAA and its hydrated form in water by NMR (Example 1C); type: physicochemical; conditions: water solution, NMR estimate, 40° C.
Protocol: One-dimensional ^1H-NMR spectra were recorded on a Bruker DRX 500 spectrometer at 40° C. The signal for TSP was used as internal reference (δH=0.0 ppm). A sample was prepared by adding 50 μl of the solution purified by reverse phase chromatography (RPC) to 650 μl D2O and subsequently transferring the diluted sample to a 5 mm NMR tube. For the quantitative measurement, a solution of Sodium Trimethyl Silyl Propionic acid (TSP, 0.991 mg/ml) was prepared; and 10 μl of that solution was added to the sample. By comparing the integral of the methyl groups in TSP with the integral of the CH2-group in hydrated IAA, an estimate of the IAA concentration in the sample could be made. Iodoacetaldehyde is in equilibrium with its hydrated form in a water solution. An estimate based on NMR is that the hydrated form accounts for approximately 90% of the sample, and the aldehyde form approximately 10%. This equilibrium should be taken into account when calculating concentration of IAA in aqueous media.

[2] = Effect of pH 12, heat and thiosulfate on iodoacetaldehyde, GC-MS and NMR (Example 8); type: physicochemical
porcine parvovirus (PPV) = assay: Porcine parvovirus inactivation by IAA, TCID50 titration on PK 15 cells (Example 2); type: cell-based, strain PPV 893/76; conditions: for PPV Reduction Factor: 4 hours
Protocol: RPC-purified IAA was diluted to the desired μM concentrations in water or in 5% IgG solution (>98% pure, KABI, Stockholm, Sweden), and the pH was adjusted to 5.00 with 0.4 M sodium phosphate. […] The samples were then gel filtered through sterile PD 10 columns containing Sephadex G-25 (Amersham Pharmacia Biotech Uppsala, Sweden) equilibrated with 25 ml of cell culture medium. A sample (2 ml) was layered onto the column and the fall-through was discarded. Then 3.2 ml cell culture medium (3.2 ml) was added to the column and the first 0.5 mL of eluate was discarded. The remaining eluate was collected for viral assay. The resulting diluting factor was 1.48. Materials for viral assays were as follows. […] The cell supernatant was clarified by low speed centrifugation and filtered through 0.45 μm and 0.2 μm filters before storing at -70° C. in aliquots. The target cells for titration of PPV were porcine kidney cell line PK 15 (ATCC CCL-33). The cells were cultivated according to conventional cell culture procedures in EMEM with non-essential amino acids (SVA, Uppsala, Sweden), supplemented with 120 μg/ml of penicillin G, 100 μg/ml of streptomycin sulfate and 5% fetal calf serum. Cells were seeded in 96 well microtiter plates (Nunc). Viral assays were performed by a TCID50 method. The original virus stock (positive control sample) and the test samples were serially diluted ten-fold in cell culture medium shortly after sampling. Aliquots (50 μl) of each dilution were added to eight wells of the 96-well microtiter plates. […] After incubation for 7 days at 37° C. in a humidified atmosphere of 5% CO2, the cells were rinsed in physiological saline and fixed in 80% acetone for 30 minutes at -20° C., after which the fixation fluid was removed and the plates were dried at 37° C. Virus infected cells were visualized by an immunoperoxidase method (Jensen […]. 22 (1981) 85-98; […]., RECENT ADVANCES IN VIRUS DIAGNOSTICS, McNutly and […]. (1984) 37-46; Saunders G. C., Am. J. VET. RES. 38 (1977) 21-25). […] The cells were then washed twice for five minutes with wash fluid and once with physiological saline. Peroxidase-conjugated rabbit anti-mouse IgG P 2060 (Dakopatts, Denmark) was added to the cells. […] Wells with viral foci were counted using an inverted microscope and the tissue culture infectious dose giving a 50% end point (TCID50) was calculated for each sample. […] 10^R=(V'×10^a')/(V''×10^a'')

[3] = biological target: T1, human coagulation Factor IX (Homo sapiens, UniProt P00740); conditions: treatment with molecular iodine; cited from earlier work
T1 construct: highly-purified human coagulation Factor IX, a labile plasma clotting factor; from tissue
T1 sequence (P00740 47-461): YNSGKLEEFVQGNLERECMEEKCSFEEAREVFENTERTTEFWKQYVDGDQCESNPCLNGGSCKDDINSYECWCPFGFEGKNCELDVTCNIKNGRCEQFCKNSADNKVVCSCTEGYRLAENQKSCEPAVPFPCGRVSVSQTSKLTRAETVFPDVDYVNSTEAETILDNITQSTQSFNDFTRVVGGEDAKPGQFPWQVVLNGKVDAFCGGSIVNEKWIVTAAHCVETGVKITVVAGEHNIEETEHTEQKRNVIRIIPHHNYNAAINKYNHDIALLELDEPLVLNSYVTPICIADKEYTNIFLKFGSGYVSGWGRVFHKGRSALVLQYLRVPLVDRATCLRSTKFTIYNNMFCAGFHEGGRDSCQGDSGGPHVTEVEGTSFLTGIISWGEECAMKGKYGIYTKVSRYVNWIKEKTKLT

## O=CCI [IAA, Iodoacetaldehyde]
[1]
  aldehyde form, share of the sample: approximately 10%
  hydrated form, share of the sample: approximately 90%
[2]; 80° C. (20 hours)
  Effect on Iodoacetaldehyde, Change: Degraded
[2]; Sodium thiosulfate, 2-20 mM
  Effect on Iodoacetaldehyde, Change: Degraded
[2]; pH 12 (0.5 hour)
  Effect on Iodoacetaldehyde, Change: Degraded
Porcine parvovirus (PPV); 180 μM IAA v. 2 mM CAA at the same rate
  potency relative to CAA (PPV inactivation): over 10 times
Porcine parvovirus (PPV); IAA 36 μM (hydrated form), 5% IgG, pH 4.64, 37° C.
  PPV Reduction Factor: ≦0.7 Log10/4 hours
Porcine parvovirus (PPV); IAA 36 μM (hydrated form), buffer, pH 4.96, 37° C.
  PPV Reduction Factor: 0.8 Log10/4 hours
Porcine parvovirus (PPV); IAA 45 μM (hydrated form), 5% IgG, pH 4.64, 37° C.
  PPV Reduction Factor: 0.9 Log10/4 hours
Porcine parvovirus (PPV); IAA 45 μM (hydrated form), buffer, pH 4.96, 37° C.
  PPV Reduction Factor: 1.1 Log10/4 hours
Porcine parvovirus (PPV); IAA 60 μM (hydrated form), 5% IgG, pH 4.64, 37° C.
  PPV Reduction Factor: 1.2 Log10/4 hours
Porcine parvovirus (PPV); IAA 60 μM (hydrated form), buffer, pH 4.96, 37° C.
  PPV Reduction Factor: 1.1 Log10/4 hours
Porcine parvovirus (PPV); IAA 90 μM (hydrated form), 5% IgG, pH 4.62, 37° C.
  PPV Reduction Factor: 1.4 Log10/4 hours
Porcine parvovirus (PPV); IAA 90 μM (hydrated form), buffer, pH 4.95, 37° C.
  PPV Reduction Factor: 1.7 Log10/4 hours
Porcine parvovirus (PPV); IAA 180 μM
  PPV inactivation rate: ~0.6 log10/hour
Porcine parvovirus (PPV); IAA 180 μM (hydrated form), 5% IgG, pH 4.61, 37° C.
  PPV Reduction Factor: 2.5 Log10/4 hours
Porcine parvovirus (PPV); IAA 180 μM (hydrated form), buffer, pH 4.93, 37° C.
  PPV Reduction Factor: 2.7 Log10/4 hours
Porcine parvovirus (PPV); IAA 600 μM (hydrated form), 5% IgG, pH 4.56, 37° C.
  PPV Reduction Factor: ≧4.7 Log10/4 hours
Porcine parvovirus (PPV); IAA 600 μM (hydrated form), buffer, pH 4.84, 37° C.
  PPV Reduction Factor: ≧4.7 Log10/4 hours
Porcine parvovirus (PPV); IAA hydrate
  concentration effective at inactivating pathogens, e.g., porcine parvovirus (as low as): 50 µM

## II [molecular iodine]
[3]
  effect on Factor IX: completely inactivate
